Experiments:
[1] = Curative activity against Echis carinatus venom assessed as mortality at 3.75 mg/kg, sc administered 30 mins after injection of venom to Swiss albino mouse measured within 24 hrs; format: functional; conditions: route subcutaneous
[2] = Antisnake venom activity against Echis carinatus venom assessed as mortality at 1.25 mg/kg preincubated for 30 mins with venom LD50 before subcutaneous administration to Swiss albino mouse measured within 24 hrs; format: functional
[3] = Curative activity against Echis carinatus venom assessed as mortality at 3.75 mg/kg, sc administered 45 mins after injection of venom to Swiss albino mouse measured within 24 hrs; format: functional; conditions: route subcutaneous
[4] = Antisnake venom activity against Echis carinatus venom assessed as mortality at 3.75 mg/kg preincubated for 30 mins with venom LD50 before subcutaneous administration to Swiss albino mouse measured within 24 hrs; format: functional
[5] = Prophylactic activity against Echis carinatus venom assessed as mortality at 3.75 mg/kg, sc administered 30 mins before injection of venom to Swiss albino mouse measured within 24 hrs; format: functional; conditions: route subcutaneous
[6] = Antisnake venom activity against Echis carinatus venom assessed as mortality at 2.50 mg/kg preincubated for 30 mins with venom LD50 before subcutaneous administration to Swiss albino mouse measured within 24 hrs; format: functional; conditions: dose 2.5 mg/kg
[7] = Curative activity against Echis carinatus venom assessed as mortality at 3.75 mg/kg, sc administered 5 mins after injection of venom to Swiss albino mouse measured within 24 hrs; format: functional; conditions: route subcutaneous
[8] = test system: Mus musculus; experiment: Toxicity in Swiss albino mouse up to 100 mg/kg, sc; format: organism-based; set-up: dose 100 mg/kg, route subcutaneous; conditions: in vivo

**Q.** Which Activity [1] does the source give for `CC(C)=CC[C@]12C(=O)C=CC(=O)[C@]13CC(C)=C[C@H]2c1cc(O)ccc1O3` [EHRETIANONE] here?
**A.** 38.3%

**Q.** And the Activity [2]?
**A.** 43.3%

**Q.** What about the Activity [3] of the same compound?
**A.** 45%

**Q.** What about the Activity [4] of the same compound?
**A.** 13.3%

**Q.** And the Activity [5]?
**A.** 16.7%

**Q.** What about the Activity [6] of the same compound?
**A.** 26.7%

**Q.** What about the Activity [7] of the same compound?
**A.** 21.7%

**Q.** And the Activity [8]?
**A.** Non-toxic

Source: ChEMBL document CHEMBL1158269, “Ehretianone, a novel quinonoid xanthene from Ehretia buxifolia with antisnake venom activity” (J Nat Prod, 1996)
